Assay results published in US8283361B2 (AstraZeneca AB, priority 2008, dated 2012).
Converted amounts (≈) assume the structure as drawn.

Tests used:
[1] = target: S. aureus GyrB ATPase (Staphylococcus aureus, UniProt P0A0K8); assay: biochemical; conditions: compound at 1 μM; one value per test if tested more than once; read-out: % Inhibition of S. aureus GyrB ATPase
Method in brief: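 IC50 values derive from 10-point titrations of compound (in DMSO). Phosphate formed from 250 μM ATP was quantified by acidic molybdate/malachite green after quenching.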

[2] = system: Streptococcus pneumoniae; assay: Bacterial susceptibility testing in liquid media (MIC); assay type: cell-based; conditions: against Streptococcus pneumoniae; lowest concentration reducing growth by 80% or more
Text: Compounds may be tested for antimicrobial activity by susceptibility testing in liquid media. Compounds may be dissolved in dimethylsulfoxide and tested in 10 doubling dilutions in the susceptibility assays. The organisms used in the assay may be grown overnight on suitable agar media and then suspended in a liquid medium appropriate for the growth of the organism. The suspension can be a 0.5 McFarland and a further 1 in 10 dilution can be made into the same liquid medium to prepare the final organism suspension in 100 μL. Plates can be incubated under appropriate conditions at 37° C. for 24 hrs prior to reading. The Minimum Inhibitory Concentration (MIC) may be determined as the lowest drug concentration able to reduce growth by 80% or more.

Sequence of S. aureus GyrB ATPase (P0A0K8 whole entry): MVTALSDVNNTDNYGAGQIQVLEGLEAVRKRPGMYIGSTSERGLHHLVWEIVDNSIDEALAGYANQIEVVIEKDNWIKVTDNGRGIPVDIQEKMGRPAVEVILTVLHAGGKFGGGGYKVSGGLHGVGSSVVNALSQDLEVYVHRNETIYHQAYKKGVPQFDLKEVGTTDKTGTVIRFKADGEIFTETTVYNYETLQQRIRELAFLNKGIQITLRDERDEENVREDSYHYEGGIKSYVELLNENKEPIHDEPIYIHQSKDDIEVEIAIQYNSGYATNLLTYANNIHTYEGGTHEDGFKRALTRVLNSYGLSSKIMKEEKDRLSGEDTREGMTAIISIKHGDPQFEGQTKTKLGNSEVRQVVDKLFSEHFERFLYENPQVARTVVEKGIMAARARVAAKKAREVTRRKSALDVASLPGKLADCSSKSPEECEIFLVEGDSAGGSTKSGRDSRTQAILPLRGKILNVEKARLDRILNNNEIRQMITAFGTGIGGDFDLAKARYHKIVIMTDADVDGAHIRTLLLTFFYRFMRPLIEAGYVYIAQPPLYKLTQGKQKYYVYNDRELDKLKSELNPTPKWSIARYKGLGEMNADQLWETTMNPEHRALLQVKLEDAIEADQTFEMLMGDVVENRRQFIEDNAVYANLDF
Sequence of S. aureus GyrB ATPase (P0AES4 whole entry, further chain): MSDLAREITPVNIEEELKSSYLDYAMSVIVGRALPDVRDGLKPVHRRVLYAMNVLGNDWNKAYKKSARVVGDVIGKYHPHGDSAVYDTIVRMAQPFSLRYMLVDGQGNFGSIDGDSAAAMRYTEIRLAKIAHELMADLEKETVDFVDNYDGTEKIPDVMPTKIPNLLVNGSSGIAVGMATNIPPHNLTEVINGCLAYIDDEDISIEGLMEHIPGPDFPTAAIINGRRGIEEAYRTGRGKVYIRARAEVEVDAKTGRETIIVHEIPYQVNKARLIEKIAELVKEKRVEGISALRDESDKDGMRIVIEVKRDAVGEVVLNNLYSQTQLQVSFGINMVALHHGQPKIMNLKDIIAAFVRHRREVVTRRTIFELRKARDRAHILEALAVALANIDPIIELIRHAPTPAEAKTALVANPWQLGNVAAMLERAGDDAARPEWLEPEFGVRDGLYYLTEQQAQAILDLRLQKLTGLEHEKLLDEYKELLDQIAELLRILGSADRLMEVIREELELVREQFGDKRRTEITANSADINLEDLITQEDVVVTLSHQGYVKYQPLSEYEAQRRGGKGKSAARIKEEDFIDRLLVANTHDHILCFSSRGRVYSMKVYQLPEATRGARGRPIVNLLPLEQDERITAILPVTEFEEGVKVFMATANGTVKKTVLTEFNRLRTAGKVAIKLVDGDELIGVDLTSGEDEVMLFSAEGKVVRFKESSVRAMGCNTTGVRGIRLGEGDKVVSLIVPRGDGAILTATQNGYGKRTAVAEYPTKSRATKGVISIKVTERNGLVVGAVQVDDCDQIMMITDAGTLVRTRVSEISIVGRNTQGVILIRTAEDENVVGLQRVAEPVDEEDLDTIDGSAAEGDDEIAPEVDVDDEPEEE

SMILES: CCNC(=O)Nc1cc(-c2nc(C(F)(F)F)cs2)c(-c2ccc3c(=O)c(C(=O)O)cn(CC)c3c2)cn1 [Example 9, 1-ethyl-7-(6-(3-ethylureido)-4-(4-trifluoromethylthiazol-2-yl)pyridin-3-yl)-4-oxo-1,4-dihydroquinoline-3-carboxylic acid]
- inhibition at 1 µM [1]: 106%
- MIC [2]: 0.02 µM (≈ 0.0106 µg/mL)

SMILES: CCNC(=O)Nc1cc(-c2nc(C(F)(F)F)cs2)c(-c2ccc3c(c2)c(=O)c(C(=O)O)cn3[C@@H]2CCN(CC)C2)cn1 [Example 250, (R)-1-(1-ethylpyrrolidin-3-yl)-6-(6-(3-ethylureido)-4-(4-(trifluoromethyl)thiazol-2-yl)pyridin-3-yl)-4-oxo-1,4-dihydroquinoline-3-carboxylic acid]
- inhibition at 1 µM [1]: 112%

SMILES: CCNC(=O)Nc1cc(-c2nc(C(F)(F)F)cs2)c(-c2ccc3c(=O)c(C(=O)NCCCO)cn(CC(C)C)c3c2)cn1 [Example 343, 7-{6-[(ethylcarbamoyl)amino]-4-[4-(trifluoromethyl)-1,3-thiazol-2-yl]pyridin-3-yl}-N-(3-hydroxypropyl)-1-(2-methylpropyl)-4-oxo-1,4-dihydroquinoline-3-carboxamide]
- inhibition at 1 µM [1]: 98%
